# Measured values as given in PubChem BioAssay AID256 (DTP/NCI, 2004).
# “And” between values parts separate entries of the source, which are not always exact repeats. Equal entries are not always repeated. Toxic doses and inconclusive results are not listed.
# Test system: CD2F1 mice, L1210 leukemia ip, survival T/C
# Assay: NCI In Vivo Anticancer Drug Screen. Data for tumor model L1210 Leukemia (intraperitoneal) in CD2F1 (CDF1) mice
# Conditions: higher = longer survival
# How it was run: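 Ratio T/C, where T is the treated-group value and C the vehicle-dosed control value, from mice implanted with a transplantable tumor.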
# [1] = endpoint: mean survival time, dose: 25.0 mg/kg/injection, schedule: Q04DX003 (ip), vehicle: saline with Tween-80
# [2] = endpoint: mean survival time, dose: 50.0 mg/kg/injection, schedule: Q04DX003 (ip), vehicle: saline with Tween-80
# [3] = endpoint: mean survival time, dose: 100.0 mg/kg/injection, schedule: Q04DX003 (ip), vehicle: saline with Tween-80
# [4] = endpoint: mean survival time, dose: 100.0 mg/kg/injection, schedule: Q01DX001 (ip), vehicle: saline with Tween-80
# [5] = endpoint: mean survival time, dose: 100.0 mg/kg/injection, schedule: Q01DX009 (ip), vehicle: saline with Tween-80
# [6] = endpoint: mean survival time, dose: 200.0 mg/kg/injection, schedule: Q01DX009 (ip), vehicle: saline with Tween-80
# [7] = endpoint: mean survival time, dose: 400.0 mg/kg/injection, schedule: Q01DX009 (ip), vehicle: saline with Tween-80
# [8] = endpoint: mean survival time, dose: 200.0 mg/kg/injection, schedule: Q04DX003 (ip), vehicle: saline with Tween-80
structure (smiles),measurement,setting,value
Cc1ccc(S(=O)(=O)/C=C(\Cl)S(=O)(=O)C(C)(C)C)cc1,T/C,"endpoint: mean survival time, dose: 25.0 mg/kg/injection, schedule: Q01DX001 (ip), vehicle: saline with Tween-80",93 % of control
same,T/C,"endpoint: mean survival time, dose: 50.0 mg/kg/injection, schedule: Q01DX001 (ip), vehicle: saline with Tween-80",104 % of control
CCN(CC)C1=CC(=O)c2ccccc2C1=O,T/C,[1],102 % of control
same,T/C,[2],96 % of control
same,T/C,[3],103 % of control
C[N+]1(CCO)C2CCC1CC(O)C2 (configuration not stated),T/C,"endpoint: mean survival time, dose: 100.0 mg/kg/injection, schedule: Q04DX002 (ip), vehicle: saline",97 % of control
same,T/C,"endpoint: mean survival time, dose: 200.0 mg/kg/injection, schedule: Q04DX002 (ip), vehicle: saline",102 % of control
COC(=O)C12OCC34C(CC5C(C)=C(O)C(=O)CC5(C)C3C(O)C1O)OC(=O)C(OC(=O)C=C(C)C)C24 (configuration not stated),T/C,"endpoint: mean survival time, dose: 125.0 micrograms/kg/injection, schedule: Q01DX009 (ip), vehicle: saline + alcohol",103 % of control
same,T/C,"endpoint: mean survival time, dose: 250.0 micrograms/kg/injection, schedule: Q01DX009 (ip), vehicle: saline + alcohol",100 % of control
same,T/C,"endpoint: mean survival time, dose: 500.0 micrograms/kg/injection, schedule: Q01DX009 (ip), vehicle: saline + alcohol",98 % of control
same,T/C,"endpoint: mean survival time, dose: 1000.0 micrograms/kg/injection, schedule: Q01DX009 (ip), vehicle: saline + alcohol",104 % of control
same,T/C,"endpoint: mean survival time, dose: 2000.0 micrograms/kg/injection, schedule: Q01DX009 (ip), vehicle: saline + alcohol",101 % of control
same,T/C,"endpoint: mean survival time, dose: 4000.0 micrograms/kg/injection, schedule: Q01DX009 (ip), vehicle: saline + alcohol",115 % of control
COc1ccc(C(OC/C=C(\C)CCC=C(C)C)OC/C=C(\C)CCC=C(C)C)cc1,T/C,"endpoint: mean survival time, dose: 12.5 mg/kg/injection, schedule: Q01DX009 (ip), vehicle: other",90 % of control
same,T/C,"endpoint: mean survival time, dose: 25.0 mg/kg/injection, schedule: Q01DX009 (ip), vehicle: other",90 % of control
same,T/C,"endpoint: mean survival time, dose: 50.0 mg/kg/injection, schedule: Q01DX009 (ip), vehicle: other",90 % of control
same,T/C,"endpoint: mean survival time, dose: 100.0 mg/kg/injection, schedule: Q01DX009 (ip), vehicle: other",95 % of control
same,T/C,"endpoint: mean survival time, dose: 200.0 mg/kg/injection, schedule: Q01DX009 (ip), vehicle: other",95 % of control
Cn1ccccc1=S,T/C,[4],108 % of control
same,T/C,"endpoint: mean survival time, dose: 200.0 mg/kg/injection, schedule: Q01DX001 (ip), vehicle: saline with Tween-80",107 % of control
same,T/C,"endpoint: mean survival time, dose: 400.0 mg/kg/injection, schedule: Q01DX001 (ip), vehicle: saline with Tween-80",103 % of control
Clc1ccc(COCc2ccccc2Cn2ccnc2)cc1,T/C,"endpoint: mean survival time, dose: 25.0 mg/kg/injection, schedule: Q01DX009 (ip), vehicle: saline with Tween-80",98 % of control
same,T/C,"endpoint: mean survival time, dose: 50.0 mg/kg/injection, schedule: Q01DX009 (ip), vehicle: saline with Tween-80",104 % of control
same,T/C,[5],96 % of control and 105 % of control
CC(C)([NH-])C[NH-].O=C(O)CC(=O)O.[Pt+2],T/C,"endpoint: median survival time, dose: 20.0 mg/kg/injection, schedule: Q04DX003 (ip), vehicle: distilled water + Tween-80",104 % of control
CCCN1C(=O)C=CC1=O,T/C,[4],91 % of control
O=C(O)C1C2CCCCC2=C2CCCCC2C1C(=O)O (configuration not stated),T/C,[5],98 % of control
same,T/C,[6],104 % of control
C1CCC(N2CCOCC2)CC1,T/C,"endpoint: mean survival time, dose: 25.0 mg/kg/injection, schedule: Q04DX002 (ip), vehicle: saline",105 % of control
same,T/C,"endpoint: mean survival time, dose: 50.0 mg/kg/injection, schedule: Q04DX002 (ip), vehicle: saline",102 % of control
COC1OC(COC(c2ccccc2)(c2ccccc2)c2ccccc2)C(OC(C)=O)C1OC(C)=O (configuration not stated),T/C,"endpoint: mean survival time, dose: 100.0 mg/kg/injection, schedule: Q04DX003 (ip), vehicle: Klucel (hydroxypropylcellulose) (HPC)",109 % of control
same,T/C,"endpoint: mean survival time, dose: 200.0 mg/kg/injection, schedule: Q04DX003 (ip), vehicle: Klucel (hydroxypropylcellulose) (HPC)",89 % of control
same,T/C,"endpoint: mean survival time, dose: 400.0 mg/kg/injection, schedule: Q04DX003 (ip), vehicle: Klucel (hydroxypropylcellulose) (HPC)",89 % of control
Cc1ccnc(=S)[nH]1.[Pd],T/C,"endpoint: mean survival time, dose: 3.12 mg/kg/injection, schedule: Q04DX003 (ip), vehicle: saline",98 % of control
same,T/C,"endpoint: mean survival time, dose: 6.25 mg/kg/injection, schedule: Q04DX003 (ip), vehicle: saline",102 % of control
same,T/C,"endpoint: mean survival time, dose: 12.5 mg/kg/injection, schedule: Q04DX003 (ip), vehicle: saline",98 % of control
same,T/C,"endpoint: mean survival time, dose: 25.0 mg/kg/injection, schedule: Q04DX003 (ip), vehicle: saline",98 % of control
same,T/C,"endpoint: mean survival time, dose: 50.0 mg/kg/injection, schedule: Q04DX003 (ip), vehicle: saline",102 % of control
same,T/C,"endpoint: mean survival time, dose: 100.0 mg/kg/injection, schedule: Q04DX003 (ip), vehicle: saline",102 % of control
same,T/C,"endpoint: mean survival time, dose: 200.0 mg/kg/injection, schedule: Q04DX003 (ip), vehicle: saline",104 % of control
CCOC(=O)CC(Cc1cc(OC)ccc1OC)(C(C)=O)C(C)=O,T/C,"endpoint: mean survival time, dose: 12.5 mg/kg/injection, schedule: Q01DX009 (ip), vehicle: water",100 % of control
same,T/C,"endpoint: mean survival time, dose: 25.0 mg/kg/injection, schedule: Q01DX009 (ip), vehicle: water",110 % of control
same,T/C,"endpoint: mean survival time, dose: 50.0 mg/kg/injection, schedule: Q01DX009 (ip), vehicle: water",102 % of control
same,T/C,"endpoint: mean survival time, dose: 100.0 mg/kg/injection, schedule: Q01DX009 (ip), vehicle: water",95 % of control
same,T/C,"endpoint: mean survival time, dose: 200.0 mg/kg/injection, schedule: Q01DX009 (ip), vehicle: water",114 % of control
COc1ccc2c(oc(=O)c3c(Cl)nc(C)c(C)c32)c1OC,T/C,"endpoint: mean survival time, dose: 25.0 mg/kg/injection, schedule: Q01DX009 (ip), vehicle: Klucel (hydroxypropylcellulose) (HPC)",102 % of control
same,T/C,"endpoint: mean survival time, dose: 50.0 mg/kg/injection, schedule: Q01DX009 (ip), vehicle: Klucel (hydroxypropylcellulose) (HPC)",95 % of control
same,T/C,"endpoint: mean survival time, dose: 100.0 mg/kg/injection, schedule: Q01DX009 (ip), vehicle: Klucel (hydroxypropylcellulose) (HPC)",93 % of control
same,T/C,"endpoint: mean survival time, dose: 200.0 mg/kg/injection, schedule: Q01DX009 (ip), vehicle: Klucel (hydroxypropylcellulose) (HPC)",93 % of control
C=C(C)COc1cc(C=NCCCC)c(C)cc1C,T/C,[5],98 % of control
same,T/C,[6],94 % of control
same,T/C,[7],96 % of control
CC(C)(CCl)c1ccc(C(C)(C)CCl)cc1,T/C,[3],100 % of control
same,T/C,[8],91 % of control
same,T/C,"endpoint: mean survival time, dose: 400.0 mg/kg/injection, schedule: Q04DX003 (ip), vehicle: saline with Tween-80",100 % of control
O=C(O)COc1ccc(Cl)cc1Cl,T/C,"endpoint: mean survival time, dose: 100.0 mg/kg/injection, schedule: Q04DX003 (ip), vehicle: saline sonified",95 % of control
same,T/C,"endpoint: mean survival time, dose: 200.0 mg/kg/injection, schedule: Q04DX003 (ip), vehicle: saline sonified",92 % of control
same,T/C,"endpoint: mean survival time, dose: 400.0 mg/kg/injection, schedule: Q04DX003 (ip), vehicle: saline sonified",95 % of control
COc1ccc(Br)cc1C1OC(=O)c2c(OC)c(OC)cc([N+](=O)[O-])c21 (configuration not stated),T/C,[3],92 % of control
same,T/C,[8],93 % of control
O=C(O)c1cc[c]([Hg][S]c2ncnc3nc[nH]c23)cc1,T/C,"endpoint: mean survival time, dose: 5.0 mg/kg/injection, schedule: Q01DX001 (ip), vehicle: saline",98 % of control
same,T/C,"endpoint: mean survival time, dose: 10.0 mg/kg/injection, schedule: Q01DX001 (ip), vehicle: saline",98 % of control
same,T/C,"endpoint: mean survival time, dose: 20.0 mg/kg/injection, schedule: Q01DX001 (ip), vehicle: saline",101 % of control
same,T/C,[1],98 % of control
same,T/C,"endpoint: mean survival time, dose: 33.0 mg/kg/injection, schedule: Q04DX003 (ip), vehicle: saline sonified",119 % of control
same,T/C,"endpoint: mean survival time, dose: 37.5 mg/kg/injection, schedule: Q01DX009 (ip), vehicle: saline sonified",172 % of control
same,T/C,"endpoint: mean survival time, dose: 40.0 mg/kg/injection, schedule: Q01DX001 (ip), vehicle: saline",98 % of control
same,T/C,"endpoint: mean survival time, dose: 50.0 mg/kg/injection, schedule: Q04DX003 (ip), vehicle: saline sonified",119 % of control
same,T/C,[2],104 % of control
same,T/C,"endpoint: mean survival time, dose: 80.0 mg/kg/injection, schedule: Q01DX001 (ip), vehicle: saline",104 % of control
same,T/C,"endpoint: mean survival time, dose: 100.0 mg/kg/injection, schedule: Q01DX009 (ip), vehicle: saline sonified",120 % of control
same,T/C,[3],121 % of control and 101 % of control
CC(C)(C)N(Cc1ccccc1)Cc1ccccc1,T/C,[5],102 % of control
same,T/C,[6],98 % of control
same,T/C,[7],101 % of control
COc1ccc(SC2=CC(=O)c3ccccc3C2=O)cc1,T/C,"endpoint: mean survival time, dose: 75.0 mg/kg/injection, schedule: Q01DX001 (ip), vehicle: other",97 % of control
same,T/C,"endpoint: mean survival time, dose: 150.0 mg/kg/injection, schedule: Q01DX001 (ip), vehicle: other",95 % of control
